The source of these data is patent US11473088B2, “Method of treating cancer and method of sensitizing cancer cells to the action of chemotherapeutic agents via growth hormone receptor antagonists or knock down” (Ohio University, priority 2016, dated 2022).

Experiment [1] deals with melanoma cells. As to the kind of experiment: Migration, invasion, clonogenicity with excess GH. Type of experiment: cell-based, human. The settings on record: up to 150 ng/ml GH. As for the experimental part:
Cell migration assays are standard methods of estimating the repair and regenerative properties of cells. In this example, the Radius Cell Migration Assay design from Cell Biolabs (Cell Biolabs #CBA-125, San Diego, Calif.) was used, and experiments were performed as per the manufacturer's protocol. In this assay, a 24-well plate containing a non-toxic, 0.68 mm biocompatible hydrogel spot is present at the center of the well, which spot prevents the attachment of cells. siRNA treated cells were trypsinized 48 hours post-transfection, counted, and seeded at 5000 cells/well in a pretreated hydrogel spot-containing 24-well plate. […] Images were captured every 24 hours using a 4× objective (total magnification 40×) employing an inverted Olympus IX70 microscope fitted with a Retiga 1300 camera (QImaging, Surrey, BC). Total uncovered area at the beginning and end of assay were quantitated using ImageJ software, Experiments were performed in triplicates.
The 96-well 3D spheroid BME cell invasion assay (Trevigen, Gaithersburg, Md.) was used to evaluate the ability of cells to invade surrounding tissue. […] The invasive behavior of the cells was monitored every 24 hours for up to 72 hours. […] Total pixels at the beginning and end of assay were quantitated using ImageJ software. […]
Colony formation on soft agar assay was next examined using a high-throughput fluorescent readout. […]

Experiment [2] deals with four melanoma cell lines. As to the kind of experiment: Cell proliferation / EC50 determination. Conditions: serum concentration in media 1%.
Method: A 1% (w/v) resazurin (Sigma-Aldrich #R7017) solution in 1× PBS was made and filter-sterilized. The final concentration of resazurin in the assay was 0.004%. Inside the proliferating cells, mildly fluorescent blue resazurin is reduced to a bright pink fluorescent product called resorufin (stable for 4 hours), which allows for a quantitative measure of the percentage of proliferating cells. In all cases, cells were incubated at 37° C. in 5% CO2 for 45-60 min. for adequate sensitivity of detection. Briefly, cells were seeded at 10,000 cells/cm^2 into 96-well plates and transfected as described above. The resazurin assay was performed 60 hours after transfection (unless specified otherwise) and resorufin absorbance was measured at 570 nm (reference wavelength=600 nm) using Spectramax250 (Molecular Devices, Sunnyvale, Calif.) and SoftmaxPro software.
More specifically, SK-MEL-28 cells (FIG. 8A, panel 1), MALME-3M cells (FIG. 8A, panel 2), MDA-MB-435 cells (FIG. 8A, panel 3), and SK-MEL-5 cells (FIG. 8A, panel 4) were treated with increasing doses of hGH for 48 hr. and cell proliferation was estimated using a resazurin-based metabolic assay.
For treatment of melanoma cells, the following five anti-tumor compounds were obtained from the sources mentioned: cisplatin (Calbiochem #232120, Darmstadt, Germany), doxorubicin (Sigma Aldrich #D-1515, St. Louis, Mo.), oridonin (Sigma-Aldrich #O-9639, St. Louis, Mo.), Paclitaxel (Sigma-Aldrich #C-7191), and vemurafenib/PLX4032 (ApexBio #A-3004, Houston, Tex.). […] In the subsequent experiments, the following drug concentrations were used unless specified otherwise: cisplatin (0.5 μM), doxorubicin (10 nM), oridonin (0.5 μM), paclitaxel (1 nM), vemurafenib (2 nM). Treatments were performed for 24 hours starting 48 hours post-transfection with siRNA.
The test system of experiment [3] is SK-HEP-1 cells. Put plainly: RT-qPCR after GH / GHR-antagonist treatment. Type of experiment: cell-based, human. The settings on record: 50 ng/mL GH, 3 days. As for the experimental part:
Following treatments, cells were lysed, and RNA extraction was performed using IBI Tri-isolate kit (IBI), following manufacturer's protocol. RT-qPCR was performed as described previously.
The inventors had previously shown that knock-down of GHR in turn strongly attenuates MET as well as HGF transcript levels in human melanoma. To verify this observation in another GHR expressing human cancer like HCC, the inventors analyzed the effects of GH and GHR-antagonist treatment on the expression of the oncogenic HGF-MET loop in human liver cancer cells. HepG2 and SK-HEP-1 cells were treated for 3 days with either 50 ng/mL GH (2.5 nM), or 50 nM GHR-antagonist, or both, and their RNA expressions were compared against untreated controls at basal levels (i.e. no drug treatment). No additional effect of added GH on the expression levels of HGF or MET in the liver cancer cell lines was observed, except a 2-fold increase in MET levels in SK-HEP-1 cells (FIG. 39). […] Irrespective of presence of added GH, the antagonist lowered HGF levels by >4-fold in Hep-G2 cells and up to 2-fold in SK-HEP-1 cells; while the MET levels were decreased by >2-fold in both Hep-G2 and SK-HEP-1 cells compared to the GH treated samples (FIG. 39). […]
On the technique in general: Quantitative PCR measures a nucleic acid by following its amplification.

For the substance “hGH: Recombinant human growth hormone, Antibodies Online #ABIN2017921”, in experiment [1], the “melanoma migration, invasion, or clonogenicity upon incubation with excess GH” value is “No marked increase”. The “minimum hGH concentration for a significant difference in cell proliferation” value in experiment [2] was 50 ng/mL. Moreover, the “increase in MET levels” value in experiment [3] came out at 2 fold.
